Experimental data as given in US20230257396A1, “MACROCYCLES AND THEIR USE” (BLOSSOMHILL THERAPEUTICS, INC., priority 2020, published 2023).

Assays:
Assay in all cases: KINOMEscan kinase binding assay (Eurofins/DiscoveRx), % Ctrl
kinases [1] = molecular target: T1, kinases (Homo sapiens, UniProt P35916)
T1 construct: purchased Eurofins/DiscoveRx; host or cells: E. coli BL21-derived host (T7 phage display) for most kinases; HEK-293 for the rest
Summary of the method: (§1)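 Competition binding, 1 h RT: phage-tagged or HEK-293-expressed DNA-tagged kinase + immobilized ligand + compound. Eluate kinase by qPCR. % Ctrl = (test − positive ctrl)/(negative ctrl − positive ctrl) × 100; lower means stronger binding.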

kinases [2] = molecular target: T2, kinases (Homo sapiens, UniProt P00533, G719C)
T2 construct: purchased Eurofins/DiscoveRx; host or cells: E. coli BL21-derived host (T7 phage display) for most kinases; HEK-293 for the rest
Summary of the method: as §1

kinases [3] = molecular target: T3, kinases (Homo sapiens, UniProt P00519, Y253F)
T3 construct: purchased Eurofins/DiscoveRx; host or cells: E. coli BL21-derived host (T7 phage display) for most kinases; HEK-293 for the rest
Summary of the method: as §1

kinases [4] = molecular target: T4, kinases (Homo sapiens, UniProt P36888, N841I)
T4 construct: purchased Eurofins/DiscoveRx; host or cells: E. coli BL21-derived host (T7 phage display) for most kinases; HEK-293 for the rest
T4 sequence (P36888 27-993 N841I): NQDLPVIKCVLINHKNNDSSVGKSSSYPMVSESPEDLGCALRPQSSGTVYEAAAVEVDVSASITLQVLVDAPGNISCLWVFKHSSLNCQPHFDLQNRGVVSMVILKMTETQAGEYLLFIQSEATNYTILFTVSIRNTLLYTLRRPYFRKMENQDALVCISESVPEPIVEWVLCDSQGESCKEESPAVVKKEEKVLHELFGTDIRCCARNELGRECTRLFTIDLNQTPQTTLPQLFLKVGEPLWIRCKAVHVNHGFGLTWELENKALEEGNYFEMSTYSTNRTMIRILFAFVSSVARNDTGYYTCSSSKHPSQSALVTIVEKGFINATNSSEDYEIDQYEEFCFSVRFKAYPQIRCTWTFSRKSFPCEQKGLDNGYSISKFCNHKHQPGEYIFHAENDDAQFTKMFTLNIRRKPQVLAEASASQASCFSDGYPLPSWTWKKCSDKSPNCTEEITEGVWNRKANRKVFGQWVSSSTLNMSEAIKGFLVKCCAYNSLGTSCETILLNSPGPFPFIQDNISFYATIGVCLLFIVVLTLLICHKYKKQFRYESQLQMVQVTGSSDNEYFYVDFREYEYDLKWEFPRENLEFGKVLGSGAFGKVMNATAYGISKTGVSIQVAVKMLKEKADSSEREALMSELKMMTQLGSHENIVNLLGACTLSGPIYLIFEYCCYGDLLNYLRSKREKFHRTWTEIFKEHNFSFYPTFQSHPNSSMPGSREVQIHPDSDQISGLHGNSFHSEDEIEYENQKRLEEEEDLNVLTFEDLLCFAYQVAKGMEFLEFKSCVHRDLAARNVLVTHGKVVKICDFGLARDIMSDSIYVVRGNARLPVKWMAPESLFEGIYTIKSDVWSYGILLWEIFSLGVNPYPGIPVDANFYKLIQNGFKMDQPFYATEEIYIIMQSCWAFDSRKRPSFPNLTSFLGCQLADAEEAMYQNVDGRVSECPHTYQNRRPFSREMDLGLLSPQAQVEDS
Summary of the method: as §1

kinases [5] = molecular target: T5, kinases (Homo sapiens, UniProt P00519)
T5 construct: purchased Eurofins/DiscoveRx; host or cells: E. coli BL21-derived host (T7 phage display) for most kinases; HEK-293 for the rest
Summary of the method: as §1

kinases [6] = molecular target: T6, kinases (Homo sapiens, UniProt P00533, L861Q)
T6 construct: purchased Eurofins/DiscoveRx; host or cells: E. coli BL21-derived host (T7 phage display) for most kinases; HEK-293 for the rest
Summary of the method: as §1

[7] = target ABL1(Y253F)-phosphorylated; 1 μM
[8] = target ABL1-nonphosphorylated; 1 μM
[9] = target ABL1-phosphorylated; 1 μM
[10] = 1 μM; ABL1(Y253F)-phosphorylated

T1 sequence (P35916 25-1363): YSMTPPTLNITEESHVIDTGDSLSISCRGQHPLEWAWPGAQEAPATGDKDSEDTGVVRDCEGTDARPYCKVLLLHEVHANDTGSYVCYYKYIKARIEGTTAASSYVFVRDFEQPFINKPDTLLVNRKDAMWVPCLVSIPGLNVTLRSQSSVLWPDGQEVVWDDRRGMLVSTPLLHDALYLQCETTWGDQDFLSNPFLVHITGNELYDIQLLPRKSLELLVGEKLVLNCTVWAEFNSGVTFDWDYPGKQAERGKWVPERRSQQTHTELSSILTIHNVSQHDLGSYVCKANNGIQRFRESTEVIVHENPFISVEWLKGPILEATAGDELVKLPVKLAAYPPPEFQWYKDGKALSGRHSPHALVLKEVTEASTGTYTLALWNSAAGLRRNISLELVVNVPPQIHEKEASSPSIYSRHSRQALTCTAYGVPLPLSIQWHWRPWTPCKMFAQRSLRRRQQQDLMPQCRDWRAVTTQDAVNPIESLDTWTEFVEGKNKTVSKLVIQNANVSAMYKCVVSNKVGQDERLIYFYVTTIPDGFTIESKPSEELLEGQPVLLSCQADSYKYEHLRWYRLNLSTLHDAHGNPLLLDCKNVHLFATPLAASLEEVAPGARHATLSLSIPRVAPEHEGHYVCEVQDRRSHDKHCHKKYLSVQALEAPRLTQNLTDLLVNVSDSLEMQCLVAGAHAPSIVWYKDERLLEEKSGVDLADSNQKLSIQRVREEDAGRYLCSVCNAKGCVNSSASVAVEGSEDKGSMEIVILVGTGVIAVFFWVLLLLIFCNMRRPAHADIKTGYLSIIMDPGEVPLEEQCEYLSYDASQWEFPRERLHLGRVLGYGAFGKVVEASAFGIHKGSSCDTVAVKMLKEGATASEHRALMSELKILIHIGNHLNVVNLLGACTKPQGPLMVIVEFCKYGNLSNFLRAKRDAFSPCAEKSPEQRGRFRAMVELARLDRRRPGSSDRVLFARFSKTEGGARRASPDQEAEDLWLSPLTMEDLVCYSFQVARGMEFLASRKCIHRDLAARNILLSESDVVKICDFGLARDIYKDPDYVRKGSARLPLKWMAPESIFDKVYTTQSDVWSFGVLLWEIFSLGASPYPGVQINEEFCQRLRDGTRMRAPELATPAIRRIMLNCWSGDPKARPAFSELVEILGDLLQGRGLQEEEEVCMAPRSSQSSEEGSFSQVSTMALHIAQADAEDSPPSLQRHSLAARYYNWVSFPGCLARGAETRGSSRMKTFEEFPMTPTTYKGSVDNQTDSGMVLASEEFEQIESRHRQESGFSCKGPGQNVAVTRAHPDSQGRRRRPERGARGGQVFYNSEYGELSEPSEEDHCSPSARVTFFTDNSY

Cc1nn(C)c2c1-c1ccc3c(c1)/C(=C/c1[nH]ccc1C(=O)N(C)CCCO2)C(=O)N3 [Ex. 150, [3a(4)Z]-9,14,16-trimethyl-10,11,13,14-tetrahydro-2H-1,17-(ethanediylidene)pyrazolo[4,3-m]dipyrrolo[3,2-f:3′,4′-i][1,4]oxazacyclopentadecine-3,8(5H,9H)-dione]
% Ctrl, FLT4 (kinases [1]; target FLT4; 1 μM): 95 % Ctrl
% Ctrl, EGFR(G719C) (kinases [2]; target EGFR(G719C); 1 μM): 92 % Ctrl
% Ctrl, ABL1(Y253F)-phosphorylated (kinases [3]; [7]): 100 % Ctrl
% Ctrl, FLT3(N841I) (kinases [4]; target FLT3(N841I); 1 μM): 19 % Ctrl
% Ctrl, ABL1-nonphosphorylated (kinases [5]; [8]): 82 % Ctrl
% Ctrl, ABL1-phosphorylated (kinases [5]; [9]): 82 % Ctrl
% Ctrl, EGFR(L861Q) (kinases [6]; target EGFR(L861Q); 1 μM): 69 % Ctrl

Cc1cc2c([nH]1)/C=C1\C(=O)Nc3ccc(cc31)-c1c(C)nn(C)c1COCCN(C)C2=O [Ex. 146, [3a(4)Z]-6,9,14,16-tetramethyl-10,11,13,14-tetrahydro-2H-1,17-(ethanediylidene)pyrazolo[4,3-m]dipyrrolo[3,2-f:3′,4′-i][1,4]oxazacyclopentadecine-3,8(5H,9H)-dione]
% Ctrl, FLT4 (kinases [1]; target FLT4; 1 μM): 78 % Ctrl
% Ctrl, EGFR(G719C) (kinases [2]; target EGFR(G719C); 1 μM): 89 % Ctrl
% Ctrl, ABL1(Y253F)-phosphorylated (kinases [3]; [7]): 89 % Ctrl
% Ctrl, FLT3(N841I) (kinases [4]; target FLT3(N841I); 1 μM): 0 % Ctrl
% Ctrl, ABL1-nonphosphorylated (kinases [5]; [8]): 64 % Ctrl
% Ctrl, ABL1-phosphorylated (kinases [5]; [9]): 100 % Ctrl
% Ctrl, EGFR(L861Q) (kinases [6]; target EGFR(L861Q); 1 μM): 89 % Ctrl

Cc1cc2c([nH]1)/C=C1\C(=O)Nc3ccc(cc31)-c1c(noc1C(C)C)COCCN(C)C2=O [Ex. 161, [3a(4)Z]-9-methyl-16-(propan-2-yl)-10,11-dihydro-2H,13H-1,17-(ethanediylidene)[1,2]oxazolo[4,3-m]dipyrrolo[3,2-f:3′,4′-i][1,4]oxazacyclopentadecine-3,8(5H,9H)-dione]
% Ctrl, FLT4 (kinases [1]; 1 μM; target FLT4): 79 % Ctrl
% Ctrl, EGFR(G719C) (kinases [2]; 1 μM; target EGFR(G719C)): 89 % Ctrl
% Ctrl, ABL1(Y253F)-phosphorylated (kinases [3]; 1 μM; target ABL1(Y253F)-phosphorylated): 78 % Ctrl
% Ctrl, FLT3(N841I) (kinases [4]; 1 μM; target FLT3(N841I)): 39 % Ctrl
% Ctrl, ABL1-nonphosphorylated (kinases [5]; 1 μM; target ABL1-nonphosphorylated): 100 % Ctrl
% Ctrl, ABL1-phosphorylated (kinases [5]; 1 μM; target ABL1-phosphorylated): 97 % Ctrl
% Ctrl, EGFR(L861Q) (kinases [6]; 1 μM; target EGFR(L861Q)): 100 % Ctrl

CN1CCOCCOc2cc3c(cc2Cl)NC(=O)/C3=C\c2[nH]ccc2C1=O [Ex. 143, [16a(17)Z]-19-chloro-2,5-dimethyl-6,7,9,10-tetrahydro-1H-12,14-(ethanediylidene)dipyrrolo[3,2-i:3′,4′-l][1,4,7]oxathiazacyclopentadecine-4,16(5H,15H)-dione]
% Ctrl, FLT4 (kinases [1]; target FLT4; 1 μM): 39 % Ctrl
% Ctrl, EGFR(G719C) (kinases [2]; target EGFR(G719C); 1 μM): 100 % Ctrl
% Ctrl, ABL1(Y253F)-phosphorylated (kinases [3]; [7]): 9.1 % Ctrl
% Ctrl, FLT3(N841I) (kinases [4]; target FLT3(N841I); 1 μM): 5.5 % Ctrl
% Ctrl, ABL1-nonphosphorylated (kinases [5]; [8]): 6 % Ctrl
% Ctrl, ABL1-phosphorylated (kinases [5]; [9]): 11 % Ctrl
% Ctrl, EGFR(L861Q) (kinases [6]; target EGFR(L861Q); 1 μM): 100 % Ctrl

Cc1cc2c([nH]1)/C=C1\C(=O)Nc3ccc(nc31)-c1ccccc1OCCCNC2=O [Ex.22, [3a(4)Z]-6-methyl-9,10,11,12-tetrahydro-1,18-(ethanediylidene)dipyrrolo[3,2-g:3′,4′-j][1,5,12]benzoxadiazacyclopentadecine-3,8(2H,5H)-dione]
% Ctrl, FLT4 (kinases [1]; 1 μM; FLT4): 92 % Ctrl
% Ctrl, EGFR(G719C) (kinases [2]; 1 μM; EGFR(G719C)): 93 % Ctrl
% Ctrl, ABL1(Y253F)-phosphorylated (kinases [3]; [10]): 68 % Ctrl
% Ctrl, FLT3(N841I) (kinases [4]; 1 μM; FLT3(N841I)): 65 % Ctrl
% Ctrl, ABL1-nonphosphorylated (kinases [5]; 1 μM; ABL1-nonphosphorylated): 71 % Ctrl
% Ctrl, ABL1-phosphorylated (kinases [5]; 1 μM; ABL1-phosphorylated): 69 % Ctrl
% Ctrl, EGFR(L861Q) (kinases [6]; 1 μM; EGFR(L861Q)): 87 % Ctrl

Cc1cc2c([nH]1)/C=C1\C(=O)Nc3cc(Cl)c(cc31)OCCO[C@@H](C(=O)N(C)C)CN(C)C2=O [Ex. 137, [7R,16a(17)Z]-19-chloro-N,N,2,5-tetramethyl-4,16-dioxo-4,5,6,7,9,10,15,16-octahydro-1H-12,14-(ethanediylidene)dipyrrolo[3,2-i:3′,4′-l][1,4,7]dioxazacyclopentadecine-7-carboxamide]
% Ctrl, FLT4 (kinases [1]; 1 μM; FLT4): 95 % Ctrl
% Ctrl, EGFR(G719C) (kinases [2]; 1 μM; EGFR(G719C)): 100 % Ctrl
% Ctrl, ABL1(Y253F)-phosphorylated (kinases [3]; [10]): 60 % Ctrl
% Ctrl, FLT3(N841I) (kinases [4]; 1 μM; FLT3(N841I)): 49 % Ctrl
% Ctrl, ABL1-nonphosphorylated (kinases [5]; 1 μM; ABL1-nonphosphorylated): 43 % Ctrl
% Ctrl, ABL1-phosphorylated (kinases [5]; 1 μM; ABL1-phosphorylated): 61 % Ctrl
% Ctrl, EGFR(L861Q) (kinases [6]; 1 μM; EGFR(L861Q)): 100 % Ctrl

Cc1cc2c([nH]1)/C=C1\C(=O)Nc3ccc(cc31)OCCOCCN(C)C2=O [Ex.91, [16a(17)Z]-2,5-dimethyl-6,7,9,10-tetrahydro-1H-12,14-(ethanediylidene)dipyrrolo[3,2-i:3′,4′-l][1,4,7]dioxazacyclopentadecine-4,16(5H,15H)-dione]
% Ctrl, FLT4 (kinases [1]; 1 μM; FLT4): 9.9 % Ctrl
% Ctrl, EGFR(G719C) (kinases [2]; 1 μM; EGFR(G719C)): 92 % Ctrl
% Ctrl, ABL1(Y253F)-phosphorylated (kinases [3]; [10]): 7.8 % Ctrl
% Ctrl, FLT3(N841I) (kinases [4]; 1 μM; FLT3(N841I)): 0 % Ctrl
% Ctrl, ABL1-nonphosphorylated (kinases [5]; 1 μM; ABL1-nonphosphorylated): 0.75 % Ctrl
% Ctrl, ABL1-phosphorylated (kinases [5]; 1 μM; ABL1-phosphorylated): 15 % Ctrl
% Ctrl, EGFR(L861Q) (kinases [6]; 1 μM; EGFR(L861Q)): 66 % Ctrl

Cc1cc2c([nH]1)/C=C1\C(=O)Nc3cc(Cl)c(cc31)OCCO[C@@H](C(=O)NC1CCNCC1)CN(C)C2=O [Ex. 134, [7R,16a(17)Z]-19-chloro-2,5-dimethyl-4,16-dioxo-N-(piperidin-4-yl)-4,5,6,7,9,10,15,16-octahydro-1H-12,14-(ethaneidylidene)dipyrrolo[3,2-i:3′,4′-l][1,4,7]dioxazacyclopentadecine-7-carboxamide]
% Ctrl, FLT4 (kinases [1]; 1 μM; FLT4): 90 % Ctrl
% Ctrl, EGFR(G719C) (kinases [2]; 1 μM; EGFR(G719C)): 89 % Ctrl
% Ctrl, ABL1(Y253F)-phosphorylated (kinases [3]; [10]): 32 % Ctrl
% Ctrl, FLT3(N841I) (kinases [4]; 1 μM; FLT3(N841I)): 26 % Ctrl
% Ctrl, ABL1-nonphosphorylated (kinases [5]; 1 μM; ABL1-nonphosphorylated): 46 % Ctrl
% Ctrl, ABL1-phosphorylated (kinases [5]; 1 μM; ABL1-phosphorylated): 38 % Ctrl
% Ctrl, EGFR(L861Q) (kinases [6]; 1 μM; EGFR(L861Q)): 95 % Ctrl

CN1CCSCCOc2cc3c(cc2Cl)NC(=O)/C3=C\c2[nH]ccc2C1=O [Ex. 153]
% Ctrl, FLT4 (kinases [1]; target FLT4; 1 μM): 11 % Ctrl
% Ctrl, EGFR(G719C) (kinases [2]; target EGFR(G719C); 1 μM): 49 % Ctrl
% Ctrl, ABL1(Y253F)-phosphorylated (kinases [3]; [7]): 13 % Ctrl
% Ctrl, FLT3(N841I) (kinases [4]; target FLT3(N841I); 1 μM): 0 % Ctrl
% Ctrl, ABL1-nonphosphorylated (kinases [5]; [8]): 1.3 % Ctrl
% Ctrl, ABL1-phosphorylated (kinases [5]; [9]): 18 % Ctrl
% Ctrl, EGFR(L861Q) (kinases [6]; target EGFR(L861Q); 1 μM): 43 % Ctrl
